# Columns and labels:
# Experiment in all cases: Kinase panel screen
# Details in all cases: Compound I and ATP 10 μM
# [1] = molecular target: EphA2 (Homo sapiens, UniProt P29317); type: biochemical
# [2] = molecular target: T1, MAPKAP-K2 (Homo sapiens, UniProt P49137); type: biochemical
# T1 construct: purchased Upstate USA or Invitrogen (commercial screening service)
# [3] = molecular target: T2, PKCC, (Homo sapiens, UniProt Q05513); type: biochemical
# T2 construct: purchased Upstate USA or Invitrogen (commercial screening service)
# [4] = molecular target: T3, MEK1 (Homo sapiens, UniProt Q02750); type: biochemical
# T3 construct: purchased Upstate USA or Invitrogen (commercial screening service)
# [5] = molecular target: T4, Met (Homo sapiens, UniProt P08581); type: biochemical
# T4 construct: purchased Upstate USA or Invitrogen (contract screening service)
# [6] = molecular target: T5, FGFR1 (Homo sapiens, UniProt P11362); type: biochemical
# T5 construct: purchased Upstate USA or Invitrogen (contract screening service)
# [7] = molecular target: T6, PRAK (Homo sapiens, UniProt Q8IW41); type: biochemical
# T6 construct: purchased Upstate USA or Invitrogen (contract screening service)
# [8] = molecular target: MKK6 (Homo sapiens, UniProt P52564); type: biochemical
# [9] = molecular target: T7, PRK2 (Homo sapiens, UniProt Q16513); type: biochemical
# T7 construct: purchased Upstate USA or Invitrogen (contract screening service)
# [10] = molecular target: T8, ASK1 (Homo sapiens, UniProt Q99683); type: biochemical
# T8 construct: purchased Upstate USA or Invitrogen (contract screening service)
# [11] = molecular target: T9, Fms (Homo sapiens, UniProt P07333); type: biochemical
# T9 construct: purchased Upstate USA or Invitrogen (commercial screening service)
# [12] = molecular target: T10, NEK2 (Homo sapiens, UniProt P51955); type: biochemical
# T10 construct: purchased Upstate USA or Invitrogen (commercial screening service)
# [13] = molecular target: T11, NEK7 (Homo sapiens, UniProt Q8TDX7); type: biochemical
# T11 construct: purchased Upstate USA or Invitrogen (commercial screening service)
# [14] = molecular target: T12, Rsk1 (Rattus norvegicus, UniProt Q63531); type: biochemical
# T12 construct: purchased Upstate USA or Invitrogen (commercial screening service)
# [15] = tested on: CaMKII; type: biochemical, rat
# [16] = molecular target: T13, CDK1 (Homo sapiens, UniProt P06493); type: biochemical
# T13 construct: purchased Upstate USA or Invitrogen (commercial screening service)
# [17] = molecular target: T14, IKKβ (Homo sapiens, UniProt O14920); type: biochemical
# T14 construct: purchased Upstate USA or Invitrogen (commercial screening service)
# [18] = molecular target: T15, JAK3 (Homo sapiens, UniProt P52333); type: biochemical
# T15 construct: purchased Upstate USA or Invitrogen (contract screening service)
# [19] = molecular target: T16, TBK1 (Homo sapiens, UniProt Q9UHD2); type: biochemical
# T16 construct: purchased Upstate USA or Invitrogen (contract screening service)
# [20] = molecular target: JNK2a2 (Homo sapiens, UniProt P45984); type: biochemical
# [21] = molecular target: T17, CHK2 (Homo sapiens, UniProt O96017); type: biochemical
# T17 construct: purchased Upstate USA or Invitrogen (contract screening service)
# [22] = molecular target: Yes (Homo sapiens, UniProt P07947); type: biochemical
# [23] = molecular target: T18, Lck (Homo sapiens, UniProt P06239); type: biochemical
# T18 construct: purchased Upstate USA or Invitrogen (contract screening service)
# [24] = molecular target: T19, CSK (Homo sapiens, UniProt P41240); type: biochemical
# T19 construct: purchased Upstate USA or Invitrogen (commercial screening service)
# [25] = molecular target: T20, PKCpiI (Homo sapiens, UniProt P05771); type: biochemical
# T20 construct: purchased Upstate USA or Invitrogen (commercial screening service)
# [26] = molecular target: T21, PKCs (Homo sapiens, UniProt Q02156); type: biochemical
# T21 construct: purchased Upstate USA or Invitrogen (commercial screening service)
# T15 sequence (P52333 whole entry): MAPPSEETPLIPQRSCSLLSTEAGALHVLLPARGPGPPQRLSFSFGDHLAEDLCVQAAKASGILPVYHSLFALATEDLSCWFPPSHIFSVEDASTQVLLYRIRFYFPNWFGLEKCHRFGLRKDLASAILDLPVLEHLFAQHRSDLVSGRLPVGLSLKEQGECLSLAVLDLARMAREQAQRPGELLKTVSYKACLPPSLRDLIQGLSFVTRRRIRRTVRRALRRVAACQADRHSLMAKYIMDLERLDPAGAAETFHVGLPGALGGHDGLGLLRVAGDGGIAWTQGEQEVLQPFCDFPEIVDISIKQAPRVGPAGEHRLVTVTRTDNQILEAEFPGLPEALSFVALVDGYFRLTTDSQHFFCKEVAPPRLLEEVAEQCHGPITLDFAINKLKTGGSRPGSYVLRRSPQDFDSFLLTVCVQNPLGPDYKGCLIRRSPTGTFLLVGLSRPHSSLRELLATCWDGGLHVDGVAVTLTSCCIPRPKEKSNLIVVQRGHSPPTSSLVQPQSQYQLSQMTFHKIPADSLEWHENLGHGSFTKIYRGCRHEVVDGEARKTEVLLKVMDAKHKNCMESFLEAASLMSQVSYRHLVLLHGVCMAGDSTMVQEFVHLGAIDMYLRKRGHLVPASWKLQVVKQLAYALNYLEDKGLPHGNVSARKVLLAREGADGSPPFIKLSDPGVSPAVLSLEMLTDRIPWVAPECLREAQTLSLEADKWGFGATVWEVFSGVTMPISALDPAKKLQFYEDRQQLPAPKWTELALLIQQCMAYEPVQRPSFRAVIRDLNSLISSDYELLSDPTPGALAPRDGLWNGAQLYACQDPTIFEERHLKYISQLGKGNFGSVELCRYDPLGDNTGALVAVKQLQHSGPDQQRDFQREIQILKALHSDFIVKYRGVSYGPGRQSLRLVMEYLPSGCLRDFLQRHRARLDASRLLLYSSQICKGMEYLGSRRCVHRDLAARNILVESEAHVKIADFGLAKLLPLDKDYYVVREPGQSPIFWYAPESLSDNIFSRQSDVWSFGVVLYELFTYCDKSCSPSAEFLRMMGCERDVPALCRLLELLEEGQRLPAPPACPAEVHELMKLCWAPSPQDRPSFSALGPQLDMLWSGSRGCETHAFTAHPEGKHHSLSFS
# T17 sequence (O96017 whole entry): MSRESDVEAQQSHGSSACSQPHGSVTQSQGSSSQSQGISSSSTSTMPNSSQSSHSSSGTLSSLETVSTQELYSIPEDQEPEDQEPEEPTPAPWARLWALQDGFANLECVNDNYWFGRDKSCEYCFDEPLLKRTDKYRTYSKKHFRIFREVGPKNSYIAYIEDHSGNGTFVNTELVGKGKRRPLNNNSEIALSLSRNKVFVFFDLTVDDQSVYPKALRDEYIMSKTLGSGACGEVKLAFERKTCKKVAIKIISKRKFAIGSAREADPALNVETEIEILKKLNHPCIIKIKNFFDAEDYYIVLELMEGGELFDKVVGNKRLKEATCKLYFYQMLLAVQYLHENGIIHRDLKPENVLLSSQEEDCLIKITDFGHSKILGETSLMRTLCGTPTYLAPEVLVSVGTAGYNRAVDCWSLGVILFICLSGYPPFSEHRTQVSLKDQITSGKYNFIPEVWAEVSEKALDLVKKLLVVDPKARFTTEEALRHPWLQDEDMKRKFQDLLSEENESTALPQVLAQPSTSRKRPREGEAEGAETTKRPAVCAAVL
# Chain of MKK6 (P52564 whole entry): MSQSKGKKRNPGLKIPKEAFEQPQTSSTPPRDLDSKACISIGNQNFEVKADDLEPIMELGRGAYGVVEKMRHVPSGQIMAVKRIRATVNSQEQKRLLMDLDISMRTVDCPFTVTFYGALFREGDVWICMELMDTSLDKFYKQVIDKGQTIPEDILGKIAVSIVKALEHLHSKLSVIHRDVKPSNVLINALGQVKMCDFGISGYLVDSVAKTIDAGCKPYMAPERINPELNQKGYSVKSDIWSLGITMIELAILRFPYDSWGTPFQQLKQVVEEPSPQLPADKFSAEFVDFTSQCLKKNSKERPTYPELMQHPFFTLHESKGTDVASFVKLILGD
# T3 sequence (Q02750 whole entry): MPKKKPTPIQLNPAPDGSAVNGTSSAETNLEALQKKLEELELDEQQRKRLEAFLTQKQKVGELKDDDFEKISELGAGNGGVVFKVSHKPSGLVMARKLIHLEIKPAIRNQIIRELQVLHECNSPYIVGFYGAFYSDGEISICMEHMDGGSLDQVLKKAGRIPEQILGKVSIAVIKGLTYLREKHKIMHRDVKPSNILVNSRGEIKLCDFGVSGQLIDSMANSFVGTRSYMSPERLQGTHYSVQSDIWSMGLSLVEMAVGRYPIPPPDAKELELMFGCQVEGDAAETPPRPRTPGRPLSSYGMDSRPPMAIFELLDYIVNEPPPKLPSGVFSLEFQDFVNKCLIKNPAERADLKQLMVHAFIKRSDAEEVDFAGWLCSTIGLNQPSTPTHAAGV
# T6 sequence (Q8IW41 whole entry): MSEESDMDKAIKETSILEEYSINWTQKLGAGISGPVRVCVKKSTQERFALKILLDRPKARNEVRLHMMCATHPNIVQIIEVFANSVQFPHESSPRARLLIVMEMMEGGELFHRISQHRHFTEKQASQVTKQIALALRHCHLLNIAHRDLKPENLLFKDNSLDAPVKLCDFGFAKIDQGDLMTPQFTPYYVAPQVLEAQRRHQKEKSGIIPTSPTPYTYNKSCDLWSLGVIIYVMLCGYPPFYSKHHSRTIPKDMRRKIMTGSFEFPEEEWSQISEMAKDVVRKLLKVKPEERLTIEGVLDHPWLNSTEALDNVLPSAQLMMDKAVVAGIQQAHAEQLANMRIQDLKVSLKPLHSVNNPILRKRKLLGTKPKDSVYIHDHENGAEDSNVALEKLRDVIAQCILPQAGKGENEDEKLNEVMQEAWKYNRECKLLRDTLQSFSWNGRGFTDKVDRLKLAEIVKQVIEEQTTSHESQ
# T16 sequence (Q9UHD2 whole entry): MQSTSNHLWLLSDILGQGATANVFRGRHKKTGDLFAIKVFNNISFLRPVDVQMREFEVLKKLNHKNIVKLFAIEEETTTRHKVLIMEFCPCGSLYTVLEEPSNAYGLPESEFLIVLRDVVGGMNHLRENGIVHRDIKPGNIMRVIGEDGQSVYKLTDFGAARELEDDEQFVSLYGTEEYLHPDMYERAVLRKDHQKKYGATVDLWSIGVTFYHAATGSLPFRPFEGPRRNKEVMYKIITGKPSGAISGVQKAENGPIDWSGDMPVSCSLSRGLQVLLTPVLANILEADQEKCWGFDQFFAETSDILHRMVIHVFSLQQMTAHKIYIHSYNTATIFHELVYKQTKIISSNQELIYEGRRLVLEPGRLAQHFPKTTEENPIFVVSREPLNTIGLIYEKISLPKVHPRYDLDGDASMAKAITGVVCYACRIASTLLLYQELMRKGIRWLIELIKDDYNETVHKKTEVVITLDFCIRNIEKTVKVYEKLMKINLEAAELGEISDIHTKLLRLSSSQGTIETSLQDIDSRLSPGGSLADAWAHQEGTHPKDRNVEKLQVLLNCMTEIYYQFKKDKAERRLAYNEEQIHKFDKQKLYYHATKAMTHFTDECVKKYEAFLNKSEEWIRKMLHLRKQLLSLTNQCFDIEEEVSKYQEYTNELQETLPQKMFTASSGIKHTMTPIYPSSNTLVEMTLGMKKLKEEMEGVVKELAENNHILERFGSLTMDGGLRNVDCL
# T5 sequence (P11362 22-822): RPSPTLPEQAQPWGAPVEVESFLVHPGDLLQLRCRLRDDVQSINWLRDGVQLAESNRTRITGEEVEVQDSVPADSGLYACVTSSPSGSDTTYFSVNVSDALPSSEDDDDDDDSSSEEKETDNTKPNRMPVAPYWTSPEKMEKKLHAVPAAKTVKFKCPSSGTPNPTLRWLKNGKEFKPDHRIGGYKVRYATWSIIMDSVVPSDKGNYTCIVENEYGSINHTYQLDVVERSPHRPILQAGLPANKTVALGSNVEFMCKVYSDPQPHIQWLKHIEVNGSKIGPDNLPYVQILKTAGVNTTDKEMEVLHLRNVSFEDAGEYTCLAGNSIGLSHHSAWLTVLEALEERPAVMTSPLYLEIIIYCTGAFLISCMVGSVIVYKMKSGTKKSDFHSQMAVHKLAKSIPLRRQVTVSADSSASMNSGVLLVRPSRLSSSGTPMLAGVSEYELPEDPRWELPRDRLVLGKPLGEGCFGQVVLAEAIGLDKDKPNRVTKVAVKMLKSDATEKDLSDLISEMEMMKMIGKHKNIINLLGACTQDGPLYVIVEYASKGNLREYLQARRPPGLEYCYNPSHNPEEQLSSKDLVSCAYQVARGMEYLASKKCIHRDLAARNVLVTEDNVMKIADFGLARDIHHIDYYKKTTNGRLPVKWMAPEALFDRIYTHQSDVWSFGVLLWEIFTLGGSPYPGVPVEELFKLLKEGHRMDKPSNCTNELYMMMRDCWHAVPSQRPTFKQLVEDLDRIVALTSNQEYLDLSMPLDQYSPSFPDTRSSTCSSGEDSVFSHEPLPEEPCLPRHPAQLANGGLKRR
# T11 sequence (Q8TDX7 whole entry): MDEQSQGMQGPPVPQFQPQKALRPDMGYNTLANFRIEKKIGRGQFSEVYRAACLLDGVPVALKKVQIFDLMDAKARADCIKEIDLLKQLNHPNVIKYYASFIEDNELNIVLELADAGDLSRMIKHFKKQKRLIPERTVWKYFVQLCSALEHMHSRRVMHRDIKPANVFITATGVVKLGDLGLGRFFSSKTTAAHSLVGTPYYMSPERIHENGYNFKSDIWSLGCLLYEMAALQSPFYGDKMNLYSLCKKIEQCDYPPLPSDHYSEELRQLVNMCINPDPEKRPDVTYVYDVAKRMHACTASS
compound,measurement,setting,value
"Nc1nc(N)c2nc(-c3cccc(O)c3)c(-c3cccc(O)c3)nc2n1 [Compound I, 6,7-bis-(3-hydroxyphenyl)-pteridine-2,4-diamine]","Percent Control, EphA2",[1],29%
same,"Percent Control, MAPKAP-K2",[2],107%
same,"Percent Control, PKCC,",[3],99%
same,"Percent Control, MEK1",[4],94%
same,"Percent Control, Met",[5],41%
same,"Percent Control, FGFR1",[6],75%
same,"Percent Control, PRAK",[7],63%
same,"Percent Control, MKK6",[8],75%
same,"Percent Control, PRK2",[9],83%
same,"Percent Control, ASK1",[10],105%
same,"Percent Control, Fms",[11],77%
same,"Percent Control, NEK2",[12],98%
same,"Percent Control, NEK7",[13],99%
same,"Percent Control, Rsk1 (r)",[14],86%
same,"Percent Control, CaMKII (r)",[15],90%
same,"Percent Control, CDK1",[16],54%
same,"Percent Control, IKKβ",[17],68%
same,"Percent Control, JAK3",[18],99%
same,"Percent Control, TBK1",[19],89%
same,"Percent Control, JNK2a2",[20],91%
same,"Percent Control, CHK2",[21],75%
same,"Percent Control, Yes",[22],30%
same,"Percent Control, Lck",[23],52%
same,"Percent Control, CSK",[24],114%
same,"Percent Control, PKCpiI",[25],80%
same,"Percent Control, PKCs",[26],69%
